Entries after “also recorded” stand apart in the source; their conditions may differ. Read-outs that look alike come from different tables or passages of the source.
Legend:
[1] = type: in vivo; details: for time of death of one mouse: male, scid/scid, beige/beige, 48 hr
Procedure: A study with synthetic compounds 13-7-2 (flavopereirine) and 13-9-1 (de-ethylflavopereirine) was conducted to compare the toxicity of the two compounds in animals. The compounds were dissolved in phosphate buffered saline for administration. Both compounds were injected IP in male immunodeficient (homozygous recessive scid/scid, beige/beige) mice.
Compound 13-7-2 was injected at a dose of 100 mg/kg, 150 mg/kg, and 200 mg/kg in mice divided in groups of two. […] One mouse injected with 150 mg/kg died at 6 hr whereas one mouse injected with 200 mg/kg dose died at 24 hr. One mouse injected with 100 mg/kg dose died at 48 hr.
Compound 13-9-1 was injected at a dose of 100 mg/kg, 150 mg/kg, and 200 mg/kg in mice divided in groups of two.

LnCap = assay: Cell Proliferation (anti-cancer), LnCap; type: cell-based, human
Procedure: (§1) The primary goal of synthesizing de-ethylflavopereirine (compound 13-9-1) was to generate a different compound that still retains the anti-cancer cell activity of flavopereirine (compound 13-7-2). Comparison of the effects of the two compounds on proliferation of a variety of cancer cells confirmed that this goal was achieved. For example, the effect of de-ethylflavopereirine on two human breast cancer cell lines and two human prostate cancer cell lines were analyzed.

[2] = mouse, in vivo
Procedure: To estimate the maximum tolerated dose of compounds 13-7-2 and 13-9-1 in mice, both compounds were dissolved in PBS and given to SCID mice by oral gavage.
Compound 13-7-2 was administered at a dose of 100 mg/kg, 150 mg/kg, or 200 mg/kg. Each dose group consisted of three mice.
Compound 13-9-1 was administered at a dose of 100 mg/kg, 150 mg/kg, or 200 mg/kg by oral gavage (three mice per dose group).
In a separate dose finding/toxicity test with compound 13-9-1, three mice received escalating doses of 50 mg/kg/day for 3 days, 100 mg/kg/day for 7 days, 200 mg/kg/day for 7 days, and 300 mg/kg/day for 3 days, given by oral gavage. Mice were monitored closely for toxic signs.

RPWE-1 = assay: Cell Proliferation (anti-cancer), RPWE-1; type: cell-based, human
Procedure: as §1

[3] = system: MIA PaCa, PANC-1, AsPc, BxPc; assay: Growth inhibition, gemcitabine alone or plus de-ethylflavopereirine; type: cell-based; details: four pancreatic cancer cell lines
[4] = Homo sapiens, after any period of treatment, read-out: Minimum Dose (IC50) needed to decrease growth 50% or greater versus control

SMILES	mice that died after IP injection ([1]; all doses tested (100, 150, 200 mg/kg))	time of death of one mouse ([1]; mouse, in vivo, ip, 100 mg/kg)	time of death of one mouse ([1]; mouse, in vivo, ip, 150 mg/kg)	time of death of one mouse ([1]; mouse, in vivo, ip, 200 mg/kg)	adverse effects observed ([1]; mouse, in vivo, ip, 100 mg/kg)	Growth Inhibition (LnCap)	IC50 (LnCap; [4])	tolerated dose, oral administration ([2]; SCID)	adverse effects observed ([2]; SCID, po, 100 mg/kg, 48 hr)	deaths ([2]; SCID, po, 150 mg/kg, 48 hr)	deaths ([2]; SCID, po, 200 mg/kg, 48 hr)	signs of distress ([2]; po, 200 mg/kg)	Growth Inhibition (RPWE-1)	IC50 (RPWE-1; [4])	response of the cell lines to the drug alone [3]
CCc1ccc2c3[nH]c4ccccc4c3cc[n+]2c1 [Compound 13-7-2, flavopereirine]	50%	48 h	6 h	24 h	swollen abdomen	Yes	10 µM	up to 100 mg/kg	No signs of distress were observed in the 100 mg/kg group of mice with the exception of bradycardia 15 min after the administration of the compound in one mouse	two mice died 15 min after administration of the compound and one mouse died 48 hr after administration of the compound	One mouse from this group died 24 hr after the administration of the compound	two mice exhibited signs of distress which included rapid breathing, bradycardia, shut eyes, and lethargy	Yes	10 µM	
Nc1ccn([C@@H]2O[C@H](CO)[C@@H](O)C2(F)F)c(=O)n1 [gemcitabine]															all four of the pancreatic cancer cell lines are resistant; also recorded: some resistance
